Data from ChEMBL document CHEMBL1150488 (1993).
Values after ≈ are worked out from the molar mass of the structure shown.

Legend:
Format in all cases: functional
Staphylococcus aureus [1] = test: Tested for zone of inhibition against Staphylococcus aureus UC3665 (1 mg/mL, 80 microL/12.7 mm)
[2] = system: Staphylococcus epidermidis; test: The compound (1 mg/mL, 80 microL/6.5 mm) was tested for zone of inhibition against Staphylococcus epidermidis UC719 (14H -, H: Hazy zone)
Bacteroides fragilis [3] = test: Tested for zone of inhibition against Bacteroides fragilis UC6513 (1 mg/mL, 80 microL/12.7 mm)
Staphylococcus aureus [4] = test: The compound (1 mg/mL, 80 microL/6.5 mm) was tested for zone of inhibition against Staphylococcus aureus UC6685 (20H -, H: Hazy zone)
Clostridium perfringens [5] = test: Tested for zone of inhibition against Clostridium perfringens UC6509
Clostridium perfringens [6] = test: Tested in vitro for its antibacterial activity against Clostridium perfringens UC6509
[7] = system: Staphylococcus epidermidis; test: The compound (1 mg/mL, 80 microL/6.5 mm) was tested for zone of inhibition against Staphylococcus epidermidis UC719 (20H -, H: Hazy zone)
[8] = Tested in vitro for its antibacterial activity against Peptococcus variabilis UC6320
Cutibacterium acnes = test: Tested in vitro for its antibacterial activity against Propionibacterium acnes UC6564
[9] = system: Bacteroides thetaiotaomicron; test: Tested in vitro for its antibacterial activity against Bacteroides thetaiotaomicron UC 9014[clindamycin 2 micro g/mL]
Bacteroides fragilis [10] = test: Tested in vitro for its antibacterial activity against Bacteroides fragilis UC9370 [clindamycin 1 micro g/mL]
Escherichia coli = test: Tested in vitro for its antibacterial activity against Escherichia coli UC9379
Staphylococcus aureus [11] = test: The compound (1 mg/mL, 80 microL/6.5 mm) was tested for zone of inhibition against Staphylococcus aureus UC6685 (21H -, H: Hazy zone)
Streptococcus pyogenes = test: Tsted in vitro for its antibacterial activity against Streptococcus pyogenes UC152
[12] = system: Parabacteroides distasonis; test: Tested in vitro for its antibacterial activity against Bacteroides distasonis UC6518
Fusobacterium nucleatum = test: Tested in vitro for its antibacterial activity against Fusobacterium nucleatum UC6324
[13] = system: Prevotella melaninogenica; test: Tested in vitro for its antibacterial activity against Bacteroides melaninogenicus UC 6523
Staphylococcus aureus [14] = test: The compound (1 mg/mL, 80 microL/12.7 mm) was tested for zone of inhibition against Staphylococcus aureus UC3665 (18H -, H: Hazy zone)
Staphylococcus aureus [15] = test: Tested for zone of inhibition against Staphylococcus aureus UC6685 (1 mg/mL, 80 microL/6.5 mm)
Clostridium perfringens [16] = test: The compound (1 mg/mL, 80 microL/12.7 mm) was tested for zone of inhibition against Clostridium perfringens UC6509 (33H -, H: Hazy zone)
[17] = system: Staphylococcus epidermidis; test: Tested for zone of inhibition against Staphylococcus epidermidis UC719 (1 mg/mL, 80 microL/6.5 mm)
Staphylococcus aureus [18] = test: The compound (1 mg/mL, 80 microL/6.5 mm) was tested for zone of inhibition against Staphylococcus aureus UC6685 (38H -, H: Hazy zone)
Clostridium perfringens [19] = test: The compound (1 mg/mL, 80 microL/12.7 mm) was tested for zone of inhibition against Clostridium perfringens UC6509 (22H -, H: Hazy zone)

COCCOC(=O)N1C/C(=C(\C)CN=[N+]=[N-])C1=O
Diameter of inhibition zone (Staphylococcus aureus [1]): 26 mm | Diameter of inhibition zone [2]: 14 mm | Diameter of inhibition zone (Bacteroides fragilis [3]): 0 mm | Diameter of inhibition zone (Staphylococcus aureus [4]): 20 mm | Diameter of inhibition zone (Clostridium perfringens [5]): 20 mm

CCCC(=O)OC[C@@H](C)[C@H]1CN(C(=O)CCC)C1=O
Diameter of inhibition zone (Staphylococcus aureus [1]): 28 mm | MIC (Clostridium perfringens [6]): 128 µg/mL (≈ 475 µM) | Diameter of inhibition zone [7]: 20 mm | MIC [8]: 256 µg/mL (≈ 950 µM) | MIC (Cutibacterium acnes): 8 µg/mL (≈ 29.7 µM) | Diameter of inhibition zone (Clostridium perfringens [5]): 63 mm | MIC [9]: 32 µg/mL (≈ 119 µM) | MIC (Bacteroides fragilis [10]): 64 µg/mL (≈ 238 µM) | MIC (Escherichia coli): > 160 µg/mL | Diameter of inhibition zone (Staphylococcus aureus [11]): 21 mm | MIC (Streptococcus pyogenes): > 160 µg/mL | MIC [12]: 128 µg/mL (≈ 475 µM) | MIC (Fusobacterium nucleatum): 64 µg/mL (≈ 238 µM) | MIC [13]: 8 µg/mL (≈ 29.7 µM)

CCCC(=O)OC[C@@H](C)[C@H]1CN(C(=O)c2ccccc2)C1=O
Diameter of inhibition zone (Bacteroides fragilis [3]): 24 mm | Diameter of inhibition zone (Staphylococcus aureus [14]): 18 mm | Diameter of inhibition zone (Staphylococcus aureus [15]): 0 mm | Diameter of inhibition zone (Clostridium perfringens [16]): 33 mm | Diameter of inhibition zone [17]: 0 mm

CCCCCC(=O)N1C[C@H]([C@H](C)CF)C1=O
Diameter of inhibition zone (Staphylococcus aureus [1]): 48 mm | Diameter of inhibition zone (Staphylococcus aureus [18]): 38 mm | Diameter of inhibition zone (Clostridium perfringens [5]): 79 mm | Diameter of inhibition zone [17]: 31 mm

CC(=O)OC/C(C)=C1\CN(C(C)=O)C1=O
Diameter of inhibition zone (Staphylococcus aureus [1]): 0 mm | Diameter of inhibition zone (Bacteroides fragilis [3]): 22 mm | Diameter of inhibition zone (Staphylococcus aureus [15]): 0 mm | Diameter of inhibition zone (Clostridium perfringens [19]): 22 mm | Diameter of inhibition zone [17]: 0 mm
